{"source": "paper PMC6151961", "about": "(Journal of Enzyme Inhibition and Medicinal Chemistry, 2018)", "key": {"[1]": {"assay": "RP-LC chromatographic lipophilicity (logkw)", "assay_type": "physicochemical", "details": "chromatographic lipophilicity from gradient RP-LC, Luna RP-C18, water/acetonitrile with 0.1% formic acid, 30 °C"}, "CA IX [2]": {"target": "T1, CA IX (Homo sapiens, UniProt Q16790)", "assay": "biochemical"}, "CA IX [3]": {"target": "T1, CA IX", "details": "cited from earlier work"}, "[4]": {"details": "read-out: pKi (exp.) (converted)"}, "[5]": {"details": "experimental value used for the QSPR model, library compounds (IDs A…, B…), equals log10 of Ki in nM, read-out: pKi (exp.) (converted)"}, "[6]": {"details": "observed Ki of library compounds (IDs A…, B…), ref ChEMBL and BindingDB, read-out: Ki"}, "[7]": {"details": "library compounds with IDs A… and B…, from observed Ki (nM), read-out: pKi (exp.) (converted)"}, "[8]": {"details": "library compounds with IDs A… and B…, observed Ki, ref ChEMBL, BindingDB, read-out: Ki"}, "[9]": {"details": "experimental value from the library Ki (IDs A…, B…), values equal log10 of Ki in nM, read-out: pKi (exp.) (converted)"}}, "note": "Where two headings read alike, the source gives them in different places."}
{"smiles": "Cc1cc(S(=O)(=O)NC(=N)NCc2ccc(S(N)(=O)=O)cc2)c(SCc2cc3c(cc2Cl)OCO3)cc1Cl", "note": "[C123]", "values": [{"measurement": "logkw", "setting": "[1]", "result": 3.850}]}
{"smiles": "Cc1cc(S(=O)(=O)NC(=N)Nc2nnc(S(N)(=O)=O)s2)c(SCc2ccccc2)cc1Cl", "note": "[C99]", "values": [{"measurement": "logkw", "setting": "[1]", "result": 4.070}]}
{"smiles": "C[C@]12CC[C@@H](OS(N)(=O)=O)CC1=C[C@@H](O)[C@@H]1[C@@H]2CC[C@]2(C)C(=O)CC[C@@H]12", "note": "[A1368]", "values": [{"measurement": "Ki", "setting": "CA IX [2]", "result": 65, "unit": "nM"}, {"measurement": "Ki", "setting": "CA IX [3]", "result": 0.065, "unit": "µM"}]}
{"smiles": "C/C(=N/Nc1ccc(S(N)(=O)=O)cc1)c1cc2cc(Br)ccc2oc1=O", "note": "[B0309]", "values": [{"measurement": "Ki", "setting": "CA IX [2]; [4]", "result": 24, "unit": "nM"}, {"measurement": "Ki", "setting": "CA IX [3]; read-out: Ki", "result": 0.024, "unit": "µM"}]}
{"smiles": "NS(=O)(=O)c1nnc(NC(=O)[C@]23C[C@H]4C[C@H](C[C@H](C4)C2)C3)s1", "note": "[A0389]", "values": [{"measurement": "Ki", "setting": "CA IX [2]; [4]", "result": 6.4, "unit": "nM"}, {"measurement": "Ki", "setting": "CA IX [3]; read-out: Ki", "result": 0.0064, "unit": "µM"}]}
{"smiles": "NS(=O)(=O)c1ccc(-n2nnc(CS[C@H]3O[C@H](CO)[C@@H](O)[C@@H](O)[C@H]3O)c2I)cc1", "note": "[B0123]", "values": [{"measurement": "Ki", "setting": "CA IX [2]; [5]", "result": 6.5, "unit": "nM"}, {"measurement": "Ki", "setting": "CA IX [3]; [6]", "result": 0.0065, "unit": "µM"}]}
{"smiles": "NS(=O)(=O)c1ccc(-n2cc(CO[C@H]3O[C@@H](CO)[C@H](O)[C@H](O)[C@@H]3O)nn2)cc1", "note": "[B0594]", "values": [{"measurement": "Ki", "setting": "CA IX [2]; [4]", "result": 101, "unit": "nM"}, {"measurement": "Ki", "setting": "CA IX [3]; read-out: Ki", "result": 0.101, "unit": "µM"}]}
{"smiles": "COC(=O)[C@@H]1O[C@H](S(N)(=O)=O)[C@@H](OC(C)=O)[C@H](OC(C)=O)[C@@H]1OC(C)=O", "note": "[B0808]", "values": [{"measurement": "Ki", "setting": "CA IX [2]; [5]", "result": 4150, "unit": "nM"}, {"measurement": "Ki", "setting": "CA IX [3]; [6]", "result": 4.15, "unit": "µM"}]}
{"smiles": "N#C[C@H]1C(COc2ccc(S(N)(=O)=O)cc2)=NON1O", "note": "[A0707]", "values": [{"measurement": "Ki", "setting": "CA IX [2]; [7]", "result": 11.3, "unit": "nM"}, {"measurement": "Ki", "setting": "CA IX [3]; [8]", "result": 0.0113, "unit": "µM"}]}
{"smiles": "CC(=O)O[C@@H]1O[C@@H](COS(N)(=O)=O)[C@H](OC(C)=O)[C@@H](OC(C)=O)[C@H]1OC(C)=O", "note": "[B0512]", "values": [{"measurement": "Ki", "setting": "CA IX [2]; [5]", "result": 72.9, "unit": "nM"}, {"measurement": "Ki", "setting": "CA IX [3]; [6]", "result": 0.073, "unit": "µM"}]}
{"smiles": "CC1=CC(C)C=C(C)N1Cc1ccc(S(N)(=O)=O)cc1", "note": "[B0412]", "values": [{"measurement": "Ki", "setting": "CA IX [2]; [9]", "result": 38, "unit": "nM"}, {"measurement": "Ki", "setting": "CA IX [3]; [6]", "result": 0.038, "unit": "µM"}]}
{"smiles": "Cc1cc(S(=O)(=O)NC(=N)Nc2ccc(S(N)(=O)=O)cc2)c(SCc2ccccc2)cc1Cl", "note": "[C94]", "values": [{"measurement": "logkw", "setting": "[1]", "result": 4.050}]}
{"smiles": "Cc1cc(S(=O)(=O)NC(=N)Nc2ccccc2S(N)(=O)=O)c(SCc2ccc(C(F)(F)F)cc2)cc1Cl", "note": "[C107]", "values": [{"measurement": "logkw", "setting": "[1]", "result": 4.430}]}
{"smiles": "Cc1cc(S(=O)(=O)NC(=N)NNc2ccc(S(N)(=O)=O)cc2)c(SCc2cc(=O)[nH]c3ccccc23)cc1Cl", "note": "[C118]", "values": [{"measurement": "logkw", "setting": "[1]", "result": 3.770}]}
{"smiles": "Cc1cc(S(=O)(=O)NC(=N)Nc2ccc(S(N)(=O)=O)cc2)c(SCc2cccc(C(F)(F)F)c2)cc1Cl", "note": "[C100]", "values": [{"measurement": "logkw", "setting": "[1]", "result": 4.530}]}
{"smiles": "CN1N[C@@H](S(N)(=O)=O)S[C@H]1NC(=O)CCSSCCC(=O)/N=c1\\sc(S(N)(=O)=O)nn1C", "note": "[A0620]", "values": [{"measurement": "Ki", "setting": "CA IX [2]; [9]", "result": 9.29, "unit": "nM"}, {"measurement": "Ki", "setting": "CA IX [3]; [6]", "result": 0.0093, "unit": "µM"}]}
{"smiles": "COc1cccc(/C=C\\C(=O)C[C@@H]2O[C@@H](COC(C)=O)[C@@H](OC(C)=O)[C@@H](OC(C)=O)[C@H]2OC(C)=O)c1", "note": "[B0574]", "values": [{"measurement": "Ki", "setting": "CA IX [2]; [7]", "result": 92.9, "unit": "nM"}, {"measurement": "Ki", "setting": "CA IX [3]; [8]", "result": 0.093, "unit": "µM"}]}
{"smiles": "CCOc1ccc(S(=O)(=O)N2CCOCC2)cc1-c1nnc2c(n1)c(C)nn2C", "note": "[B0310]", "values": [{"measurement": "Ki", "setting": "CA IX [2]; [9]", "result": 24, "unit": "nM"}, {"measurement": "Ki", "setting": "CA IX [3]; [6]", "result": 0.024, "unit": "µM"}]}
{"smiles": "NS(=O)(=O)c1ccc(NC(=S)Nc2ccc(C3c4ccc(O)cc4Oc4cc(O)ccc43)c(C(=O)O)c2)c(Cl)c1", "note": "[B0381]", "values": [{"measurement": "Ki", "setting": "CA IX [2]; [7]", "result": 32, "unit": "nM"}, {"measurement": "Ki", "setting": "CA IX [3]; [8]", "result": 0.032, "unit": "µM"}]}
{"smiles": "Cc1cc(S(=O)(=O)NC(=N)Nc2ccc(S(N)(=O)=O)cc2)c(SCc2cc3c(cc2Cl)OCO3)cc1Cl", "note": "[C120]", "values": [{"measurement": "logkw", "setting": "[1]", "result": 4.070}]}
{"smiles": "Cc1cc(S(=O)(=O)NC(=N)Nc2cccc(S(N)(=O)=O)c2)c(SCc2ccccc2)cc1Cl", "note": "[C95]", "values": [{"measurement": "logkw", "setting": "[1]", "result": 3.930}]}
{"smiles": "Oc1cc(O)c2c(c1)O[C@@H](c1ccc(O)c(O)c1)[C@H](O)C2", "note": "[B0819]", "values": [{"measurement": "Ki", "setting": "CA IX [2]; [7]", "result": 5040, "unit": "nM"}, {"measurement": "Ki", "setting": "CA IX [3]; [8]", "result": 5.03, "unit": "µM"}]}
{"smiles": "NS(=O)(=O)c1ccc(N[C@H]2SC[C@@H](c3ccc(Cl)cc3Cl)N2C2CCCCC2)cc1", "note": "[B0713]", "values": [{"measurement": "Ki", "setting": "CA IX [2]; [5]", "result": 342, "unit": "nM"}, {"measurement": "Ki", "setting": "CA IX [3]; [6]", "result": 0.342, "unit": "µM"}]}
{"smiles": "C[C@H]1O[C@@H](NS(N)(=O)=O)[C@@H](O)[C@H](O)[C@H]1O", "note": "[B0772]", "values": [{"measurement": "Ki", "setting": "CA IX [2]; [4]", "result": 899, "unit": "nM"}, {"measurement": "Ki", "setting": "CA IX [3]; read-out: Ki", "result": 0.9, "unit": "µM"}]}
{"smiles": "COC(=O)C(=O)[C@H]1C(=O)Nc2ccccc21", "note": "[B0865]", "values": [{"measurement": "Ki", "setting": "CA IX [2]; [5]", "result": 8020, "unit": "nM"}, {"measurement": "Ki", "setting": "CA IX [3]; [6]", "result": 8.02, "unit": "µM"}]}
{"smiles": "Cc1cc(S(=O)(=O)NC(=N)Nc2cccc(S(N)(=O)=O)c2)c(SCc2cc3c(cc2Cl)OCO3)cc1Cl", "note": "[C121]", "values": [{"measurement": "logkw", "setting": "[1]", "result": 3.990}]}
{"smiles": "CC(=O)OC[C@H]1O[C@H](SCc2nnn(-c3ccc(S(N)(=O)=O)cc3)c2C#CCO)[C@@H](OC(C)=O)[C@H](OC(C)=O)[C@@H]1OC(C)=O", "note": "[B0570]", "values": [{"measurement": "Ki", "setting": "CA IX [2]; [9]", "result": 91, "unit": "nM"}, {"measurement": "Ki", "setting": "CA IX [3]; [6]", "result": 0.091, "unit": "µM"}]}
{"smiles": "NS(=O)(=O)c1ccc(-n2cc(/C=N/Nc3nc(-c4cc5cc(Br)ccc5oc4=O)cs3)c(-c3ccccc3)n2)cc1", "note": "[B0298]", "values": [{"measurement": "Ki", "setting": "CA IX [2]; [4]", "result": 22, "unit": "nM"}, {"measurement": "Ki", "setting": "CA IX [3]; read-out: Ki", "result": 0.022, "unit": "µM"}]}
{"smiles": "CC(=O)/N=C1\\SC(S(N)(=O)=O)=N[C@@H]1C", "note": "[B0187]", "values": [{"measurement": "Ki", "setting": "CA IX [2]; [4]", "result": 8.99, "unit": "nM"}, {"measurement": "Ki", "setting": "CA IX [3]; read-out: Ki", "result": 0.009, "unit": "µM"}]}
{"smiles": "Cc1cc(S(=O)(=O)NC(=N)Nc2cccc(S(N)(=O)=O)c2)c(SCc2cc(=O)[nH]c3ccccc23)cc1Cl", "note": "[C116]", "values": [{"measurement": "logkw", "setting": "[1]", "result": 3.800}]}
{"smiles": "Cc1cccc(/C=N/CCc2ccc(S(N)(=O)=O)cc2)c1O", "note": "[B0709]", "values": [{"measurement": "Ki", "setting": "CA IX [2]; [4]", "result": 295, "unit": "nM"}, {"measurement": "Ki", "setting": "CA IX [3]; read-out: Ki", "result": 0.295, "unit": "µM"}]}
